Measured values taken from the supplement of paper PMC10307832.

The cell lines below were run with c1ccc2c(CCNc3ccc(Nc4ccncc4)cc3)c[nH]c2c1 [Serdemetan] + Nc1ncn([C@H]2C[C@H](O)[C@@H](CO)O2)c(=O)n1 [Decitabine] (partner 2 µM) (assay: relative viability (nuclei count vs DMSO), 5 days (fraction); higher = more cells survive). Details: first compound 0.04 µM.
In short: (§1)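 Nuclei were stained with Hoechst during a one-step fixation (final 0.05% Triton X-100, 1% formaldehyde, 1 ug/ml Hoechst) carried out 5 days after dosing, then counted on 4× images. The cells, lung cancer lines in 1536-well plates, had been dosed by pin tool the day after seeding with one drug alone or a fixed anchor-drug dose plus five library-drug doses (not always all listed) in √10 steps. Relative viability is the nuclei count in treated wells divided by that in vehicle wells, and each value is the median of duplicate plates.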

Row | Cell Line | relative viability
1 | NCI-H1915 | 0.266
2 | HCC-827 | 0.371
3 | LXF-289 | 0.354
4 | NCI-H23 | 0.303
5 | NCI-H647 | 0.276
6 | NCI-H1651 | 0.486
7 | EPLC-272H | 0.384
8 | NCI-H1792 | 0.429
9 | NCI-H1355 | 0.382
10 | NCI-H3122 | 0.451
11 | NCI-H1437 | 0.511
12 | NCI-H1755 | 0.697
13 | HCC-15 | 0.614
14 | NCI-H1793 | 0.46
15 | PC-14 | 0.186
16 | EKVX | 0.322
17 | LC-2-ad | 0.795
18 | NCI-H1944 | 0.493
19 | NCI-H1975 | 0.421
20 | RERF-LC-KJ | 0.785
21 | ABC-1 | 0.896
22 | NCI-H358 | 0.186
23 | NCI-H650 | 0.321
24 | PC-3 [JPC-3] | 0.901

Same assay, conditions: first compound 0.1265 µM

Row | Cell Line | relative viability
25 | NCI-H1915 | 0.259
26 | HCC-827 | 0.243
27 | LXF-289 | 0.357
28 | NCI-H23 | 0.308
29 | NCI-H647 | 0.368
30 | NCI-H1651 | 0.414
31 | EPLC-272H | 0.362
32 | NCI-H1792 | 0.459
33 | NCI-H1355 | 0.34
34 | NCI-H3122 | 0.444
35 | NCI-H1437 | 0.5
36 | NCI-H1755 | 0.73
37 | HCC-15 | 0.599
38 | NCI-H1793 | 0.449
39 | PC-14 | 0.202
40 | EKVX | 0.33
41 | LC-2-ad | 0.727
42 | NCI-H1944 | 0.409
43 | NCI-H1975 | 0.369
44 | RERF-LC-KJ | 0.636
45 | ABC-1 | 1.01
46 | NCI-H358 | 0.234
47 | NCI-H650 | 0.331
48 | PC-3 [JPC-3] | 0.844

Same assay, conditions: first compound 0.4 µM

Row | Cell Line | relative viability
49 | NCI-H1915 | 0.253
50 | LXF-289 | 0.349
51 | NCI-H23 | 0.223
52 | NCI-H647 | 0.403
53 | NCI-H1651 | 0.497
54 | EPLC-272H | 0.341
55 | NCI-H1792 | 0.417
56 | NCI-H1355 | 0.306
57 | NCI-H3122 | 0.469
58 | NCI-H1437 | 0.582
59 | NCI-H1755 | 0.668
60 | HCC-15 | 0.56
61 | NCI-H1793 | 0.361
62 | LC-2-ad | 0.679
63 | NCI-H1944 | 0.384
64 | NCI-H1975 | 0.306
65 | RERF-LC-KJ | 0.722
66 | ABC-1 | 1.25
67 | NCI-H358 | 0.221
68 | NCI-H650 | 0.321
69 | PC-3 [JPC-3] | 0.854

Same assay, conditions: first compound 1.265 µM

Row | Cell Line | relative viability
70 | NCI-H1915 | 0.231
71 | HCC-827 | 0.263
72 | LXF-289 | 0.268
73 | NCI-H647 | 0.28
74 | NCI-H1651 | 0.275
75 | EPLC-272H | 0.338
76 | NCI-H1792 | 0.327
77 | NCI-H1355 | 0.288
78 | NCI-H3122 | 0.322
79 | NCI-H1437 | 0.492
80 | NCI-H1755 | 0.488
81 | HCC-15 | 0.511
82 | NCI-H1793 | 0.219
83 | PC-14 | 0.125
84 | LC-2-ad | 0.714
85 | NCI-H1944 | 0.269
86 | NCI-H1975 | 0.262
87 | RERF-LC-KJ | 0.489
88 | ABC-1 | 0.921
89 | NCI-H358 | 0.18
90 | NCI-H650 | 0.24
91 | PC-3 [JPC-3] | 0.847

Same assay, conditions: first compound 4 µM

Row | Cell Line | relative viability
92 | NCI-H1915 | 0.239
93 | HCC-827 | 0.305
94 | LXF-289 | 0.337
95 | NCI-H23 | 0.302
96 | NCI-H647 | 0.235
97 | NCI-H1651 | 0.289
98 | EPLC-272H | 0.256
99 | NCI-H1792 | 0.176
100 | NCI-H1355 | 0.31
101 | NCI-H3122 | 0.368
102 | NCI-H1437 | 0.427
103 | NCI-H1755 | 0.434
104 | HCC-15 | 0.341
105 | NCI-H1793 | 0.231
106 | PC-14 | 0.138
107 | EKVX | 0.291
108 | LC-2-ad | 0.634
109 | NCI-H1944 | 0.295
110 | NCI-H1975 | 0.34
111 | RERF-LC-KJ | 0.605
112 | ABC-1 | 0.844
113 | NCI-H358 | 0.195
114 | NCI-H650 | 0.262
115 | PC-3 [JPC-3] | 0.742

What follows are cell lines tested with C1CC(C2=C(C1)C3=C(N2)C=CC(=C3)Cl)C(=O)N [Selisistat] + O=C(c1cc(Cc2n[nH]c(=O)c3ccccc23)ccc1F)N1CCN(C(=O)C2CC2)CC1 [Olaparib] (partner 8 µM) in the same assay as above. Details: first compound 0.4 µM.
In short: as §1

Row | Cell Line | relative viability
116 | NCI-H1915 | 0.329
117 | HCC-827 | 0.678
118 | LXF-289 | 1.1
119 | NCI-H23 | 0.234
120 | NCI-H647 | 0.622
121 | NCI-H1651 | 0.197
122 | EPLC-272H | 0.888
123 | NCI-H1792 | 0.47
124 | NCI-H1355 | 0.796
125 | NCI-H3122 | 0.661
126 | NCI-H1437 | 0.599
127 | NCI-H1755 | 0.955
128 | HCC-15 | 0.822
129 | NCI-H1793 | 1.01
130 | PC-14 | 0.252
131 | EKVX | 0.872
132 | LC-2-ad | 0.801
133 | NCI-H1944 | 0.431
134 | NCI-H1975 | 0.765
135 | RERF-LC-KJ | 0.962
136 | ABC-1 | 0.715
137 | NCI-H358 | 0.724
138 | NCI-H650 | 0.51
139 | PC-3 [JPC-3] | 1.13

Same assay, conditions: first compound 1.265 µM

Row | Cell Line | relative viability
140 | NCI-H1915 | 0.26
141 | HCC-827 | 0.741
142 | LXF-289 | 1.03
143 | NCI-H23 | 0.353
144 | NCI-H647 | 0.577
145 | NCI-H1651 | 0.168
146 | EPLC-272H | 0.787
147 | NCI-H1792 | 0.403
148 | NCI-H1355 | 0.775
149 | NCI-H3122 | 0.661
150 | NCI-H1437 | 0.615
151 | NCI-H1755 | 0.835
152 | HCC-15 | 0.712
153 | NCI-H1793 | 0.935
154 | PC-14 | 0.201
155 | EKVX | 0.886
156 | LC-2-ad | 0.69
157 | NCI-H1944 | 0.381
158 | NCI-H1975 | 0.728
159 | RERF-LC-KJ | 0.916
160 | ABC-1 | 0.686
161 | NCI-H358 | 0.593
162 | NCI-H650 | 0.379
163 | PC-3 [JPC-3] | 1.1

Same assay, conditions: first compound 4 µM

Row | Cell Line | relative viability
164 | NCI-H1915 | 0.25
165 | HCC-827 | 0.672
166 | LXF-289 | 0.96
167 | NCI-H647 | 0.736
168 | NCI-H1651 | 0.215
169 | EPLC-272H | 0.626
170 | NCI-H1355 | 0.664
171 | NCI-H1437 | 0.618
172 | NCI-H1755 | 0.941
173 | HCC-15 | 0.855
174 | PC-14 | 0.186
175 | EKVX | 0.752
176 | LC-2-ad | 0.717
177 | NCI-H1944 | 0.335
178 | NCI-H1975 | 0.776
179 | RERF-LC-KJ | 0.844
180 | NCI-H358 | 0.696
181 | NCI-H650 | 0.496

Same assay, conditions: first compound 12.65 µM

Row | Cell Line | relative viability
182 | NCI-H1915 | 0.252
183 | HCC-827 | 0.647
184 | LXF-289 | 0.966
185 | NCI-H23 | 0.305
186 | NCI-H647 | 0.48
187 | NCI-H1651 | 0.183
188 | EPLC-272H | 0.749
189 | NCI-H1792 | 0.479
190 | NCI-H1355 | 0.735
191 | NCI-H3122 | 0.556
192 | NCI-H1437 | 0.565
193 | NCI-H1755 | 0.875
194 | HCC-15 | 0.675
195 | NCI-H1793 | 0.812
196 | PC-14 | 0.204
197 | EKVX | 0.869
198 | LC-2-ad | 0.633
199 | NCI-H1944 | 0.357
200 | NCI-H1975 | 0.653
201 | RERF-LC-KJ | 0.828
202 | ABC-1 | 0.876
203 | NCI-H358 | 0.553
204 | NCI-H650 | 0.382
205 | PC-3 [JPC-3] | 1.02

Same assay, conditions: first compound 40 µM

Row | Cell Line | relative viability
206 | NCI-H1915 | 0.304
207 | HCC-827 | 0.627
208 | LXF-289 | 1.04
209 | NCI-H23 | 0.31
210 | NCI-H647 | 0.591
211 | NCI-H1651 | 0.21
212 | EPLC-272H | 0.657
213 | NCI-H1792 | 0.442
214 | NCI-H1355 | 0.813
215 | NCI-H3122 | 0.649
216 | NCI-H1437 | 0.544
217 | NCI-H1755 | 0.952
218 | HCC-15 | 0.743
219 | NCI-H1793 | 0.912
220 | PC-14 | 0.29
221 | EKVX | 0.818
222 | LC-2-ad | 0.71
223 | NCI-H1944 | 0.413
224 | NCI-H1975 | 0.605
225 | RERF-LC-KJ | 0.839
226 | ABC-1 | 0.69
227 | NCI-H358 | 0.662
228 | NCI-H650 | 0.3
229 | PC-3 [JPC-3] | 1.07
